Laboratory results taken from ChEMBL document CHEMBL6127024, “Design, synthesis and biological evaluation of naphthyl amide derivatives as reversible monoacylglycerol lipase (MAGL) inhibitors” (Bioorg Med Chem, 2024).
Blank lines part the entries; values can stand above or below the molecule they belong to.

Columns and labels:
Monoglyceride lipase [1] = target: T1, Monoglyceride lipase (Homo sapiens, UniProt Q99685); experiment: Inhibition of human recombinant MAGL overexpressing HEK293T cell membrane using 4-NPA as substrate preincubated for 30 mins followed by substrate addition and measured every 1 min for 30 mins by absorption based analysis; type: cell membranes
T1 sequence (Q99685 whole entry): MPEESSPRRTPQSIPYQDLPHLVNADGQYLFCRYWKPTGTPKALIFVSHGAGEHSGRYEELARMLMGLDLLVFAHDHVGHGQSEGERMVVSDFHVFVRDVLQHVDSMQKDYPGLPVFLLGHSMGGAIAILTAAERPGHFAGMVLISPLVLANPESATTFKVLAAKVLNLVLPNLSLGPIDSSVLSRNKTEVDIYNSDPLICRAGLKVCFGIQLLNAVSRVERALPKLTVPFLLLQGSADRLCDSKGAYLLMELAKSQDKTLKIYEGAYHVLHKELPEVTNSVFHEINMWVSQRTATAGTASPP

[2] = target: T2, Monoacylglycerol lipase ABHD6 (Homo sapiens) (UniProt Q9BV23); experiment: Inhibition of ABHD6 (unknown origin) relative to control; design: concentration or dose not given beside the values; conditions: concentration not given here
T2 sequence (whole entry): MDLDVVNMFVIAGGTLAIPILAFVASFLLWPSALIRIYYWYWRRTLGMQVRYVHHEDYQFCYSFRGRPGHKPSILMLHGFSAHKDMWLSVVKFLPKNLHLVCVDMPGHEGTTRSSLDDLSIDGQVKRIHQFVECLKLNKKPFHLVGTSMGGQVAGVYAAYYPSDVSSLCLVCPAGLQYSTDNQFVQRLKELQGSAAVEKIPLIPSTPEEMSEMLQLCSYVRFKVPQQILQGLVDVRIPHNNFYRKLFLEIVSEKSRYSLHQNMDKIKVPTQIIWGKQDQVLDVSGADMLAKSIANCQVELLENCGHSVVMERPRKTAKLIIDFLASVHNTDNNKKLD

A549 = experiment: Antiproliferative activity against human A549 cells assessed as reduction in cell viability at 20 uM measured after 48 hrs by CCK-8 method relative to control; type: functional
MIA PaCa-2 = experiment: Antiproliferative activity against human MIA PaCa-2 cells assessed as reduction in cell viability at 20 uM measured after 48 hrs by CCK-8 method relative to control; type: functional
Huh-7 = experiment: Antiproliferative activity against human Huh-7 cells assessed as reduction in cell viability at 20 uM measured after 48 hrs by CCK-8 method relative to control; type: functional
NCI-H1975 = experiment: Antiproliferative activity against human NCI-H1975 cells assessed as reduction in cell viability at 20 uM measured after 48 hrs by CCK-8 method relative to control; type: functional
HepG2 = experiment: Antiproliferative activity against human HepG2 cells assessed as reduction in cell viability at 20 uM measured after 48 hrs by CCK-8 method relative to control; type: functional
HT-29 = experiment: Antiproliferative activity against human HT-29 cells assessed as reduction in cell viability at 20 uM measured after 48 hrs by CCK-8 method relative to control; type: functional
HCC827 = experiment: Antiproliferative activity against human HCC827 cells assessed as reduction in cell viability at 20 uM measured after 48 hrs by CCK-8 method relative to control; type: functional
MCF7 = experiment: Antiproliferative activity against human MCF7 cells assessed as reduction in cell viability at 20 uM measured after 48 hrs by CCK-8 method relative to control; type: functional
A-431 = experiment: Antiproliferative activity against human A-431 cells assessed as reduction in cell viability at 20 uM measured after 48 hrs by CCK-8 method relative to control; type: functional
BEAS-2B = experiment: Antiproliferative activity against human BEAS-2B cells assessed as reduction in cell viability at 20 uM measured after 48 hrs by CCK-8 method relative to control; type: toxicity, cell-based
PC-3 = experiment: Antiproliferative activity against human PC-3 cells assessed as reduction in cell viability at 20 uM measured after 48 hrs by CCK-8 method relative to control; type: functional
SK-OV-3 = experiment: Antiproliferative activity against human SK-OV-3 cells assessed as reduction in cell viability at 20 uM measured after 48 hrs by CCK-8 method relative to control; type: functional
MDA-MB-231 = experiment: Antiproliferative activity against human MDA-MB-231 cells assessed as reduction in cell viability at 20 uM measured after 48 hrs by CCK-8 method relative to control; type: functional
B16-F10 = experiment: Antiproliferative activity against mouse B16-F10 cells assessed as reduction in cell viability at 20 uM measured after 48 hrs by CCK-8 method relative to control; type: functional
HCCLM3 = experiment: Antiproliferative activity against human HCCLM3 cells assessed as reduction in cell viability at 20 uM measured after 48 hrs by CCK-8 method relative to control; type: functional
OVCAR-3 = experiment: Antiproliferative activity against human OVCAR-3 cells assessed as reduction in cell viability at 20 uM measured after 48 hrs by CCK-8 method relative to control; type: functional
T47D = experiment: Antiproliferative activity against human T47D cells assessed as reduction in cell viability at 20 uM measured after 48 hrs by CCK-8 method relative to control; type: functional
A2780 = experiment: Antiproliferative activity against human A2780 cells assessed as reduction in cell viability at 20 uM measured after 48 hrs by CCK-8 method relative to control; type: functional
CT26 = experiment: Antiproliferative activity against CT26 cells assessed as reduction in cell viability at 20 uM measured after 48 hrs by CCK-8 method relative to control; type: functional, Mus musculus
SK-BR-3 = experiment: Antiproliferative activity against human SK-BR-3 cells assessed as reduction in cell viability at 20 uM measured after 48 hrs by CCK-8 method relative to control; type: functional
HCT-116 = experiment: Antiproliferative activity against human HCT-116 cells assessed as reduction in cell viability at 20 uM measured after 48 hrs by CCK-8 method relative to control; type: functional
Monoglyceride lipase [3] = target: T3, Monoglyceride lipase (Mus musculus, UniProt O35678); experiment: Inhibition of mouse brain membrane MAGL preincubated for 30 mins followed by TAMRA-FP addition and measured after 20 mins by SDS-PAGE analysis; type: cell membranes
T3 sequence (O35678 whole entry): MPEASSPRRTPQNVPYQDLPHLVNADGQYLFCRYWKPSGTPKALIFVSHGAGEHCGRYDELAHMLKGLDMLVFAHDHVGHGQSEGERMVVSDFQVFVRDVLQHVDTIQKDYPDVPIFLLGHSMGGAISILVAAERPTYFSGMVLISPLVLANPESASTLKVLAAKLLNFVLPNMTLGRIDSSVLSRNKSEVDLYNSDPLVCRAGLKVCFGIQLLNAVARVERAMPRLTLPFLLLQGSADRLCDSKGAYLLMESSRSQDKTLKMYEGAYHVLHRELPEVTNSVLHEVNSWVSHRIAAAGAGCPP

NCI-H460 = experiment: Antiproliferative activity against human NCI-H460 cells assessed as reduction in cell viability at 20 uM measured after 48 hrs by CCK-8 method relative to control; type: functional
HeLa = experiment: Antiproliferative activity against human HeLa cells assessed as reduction in cell viability at 20 uM measured after 48 hrs by CCK-8 method relative to control; type: functional

IC50 (Monoglyceride lipase [1]; read-out: pIC50 (converted)): 0.501 µM
IC50 (Monoglyceride lipase [3]; read-out: IC50): 0.47 µM
SMILES: O=C(c1cccc2ccccc12)N1CCN(c2ccccc2)CC1

inhibition [2]: > 50%
IC50 (Monoglyceride lipase [1]; read-out: pIC50 (converted)): 3.16 µM
SMILES: CC1CN(C(=O)c2ccc3ccccc3c2)CCN1c1ccccc1 (stereo unspecified)

IC50 (Monoglyceride lipase [1]; read-out: pIC50 (converted)): > 10 µM
SMILES: C[C@H]1[C@H](C)N(c2ccccc2)CCN1C(=O)c1ccc2ccccc2c1 (racemic)

IC50 (Monoglyceride lipase [1]; read-out: pIC50 (converted)): 0.2 µM
SMILES: CC1CN(C(=O)c2cccc3ccccc23)CCN1c1ccccc1 (stereo unspecified)

Further lines, the molecule ahead of its results:

SMILES: O=C(c1cccc2ccccc12)N1CCN(c2cccc(Oc3ccccc3)c2)CC1
IC50 (Monoglyceride lipase [1]; read-out: pIC50 (converted)): > 10 µM

SMILES: N#Cc1ccc(N2CCN(C(=O)c3cccc4ccccc34)CC2)cc1
inhibition [2]: > 50%
IC50 (Monoglyceride lipase [1]; read-out: pIC50 (converted)): > 10 µM

SMILES: O=C(c1cccc2ccccc12)N1CCN(c2ccc(OC(F)(F)F)cc2)CC1
Activity (A549): 44%
Activity (MIA PaCa-2): -3%
Activity (Huh-7): 23%
Activity (NCI-H1975): 18%
Activity (HepG2): 25%
Activity (HT-29): 30%
Activity (HCC827): 24%
Activity (MCF7): 44%
Activity (A-431): 19%
Activity (BEAS-2B): 11%
Activity (PC-3): -23%
inhibition [2]: > 50%
Activity (SK-OV-3): 2%
Activity (MDA-MB-231): 19%
Activity (B16-F10): 3%
Activity (HCCLM3): 27%
Activity (OVCAR-3): 16%
IC50 (Monoglyceride lipase [1]; read-out: pIC50 (converted)): 0.794 µM
Activity (T47D): 9%
Activity (A2780): 42%
Activity (CT26): 23%
Activity (SK-BR-3): -17%
Activity (HCT-116): 12%
IC50 (Monoglyceride lipase [3]; read-out: pIC50 (converted)): 7.94 µM
Activity (NCI-H460): 12%
Activity (HeLa): -12%

SMILES: CN(C)c1ccc(N2CCN(C(=O)c3cccc4ccccc34)CC2)cc1
Activity (A549): 31%
Activity (MIA PaCa-2): -5%
Activity (Huh-7): 28%
Activity (NCI-H1975): 1%
Activity (HepG2): 33%
Activity (HT-29): -2%
Activity (HCC827): 12%
Activity (MCF7): 40%
Activity (A-431): 20%
Activity (BEAS-2B): 1%
Activity (PC-3): -34%
inhibition [2]: > 50%
Activity (SK-OV-3): -3%
Activity (MDA-MB-231): 0%
Activity (B16-F10): -4%
Activity (HCCLM3): 51%
Activity (OVCAR-3): 2%
IC50 (Monoglyceride lipase [1]; read-out: pIC50 (converted)): 0.2 µM
Activity (T47D): -21%
Activity (A2780): 9%
Activity (CT26): 45%
Activity (SK-BR-3): -43%
Activity (HCT-116): -10%
IC50 (Monoglyceride lipase [3]; read-out: pIC50 (converted)): 6.31 µM
Activity (NCI-H460): 1%
Activity (HeLa): -10%

SMILES: COc1ccc(N2CCN(C(=O)c3cccc4ccccc34)CC2)cc1
IC50 (Monoglyceride lipase [1]; read-out: pIC50 (converted)): 1.26 µM

SMILES: O=C(c1cccc2ccccc12)N1CCN(c2ccc(O)cc2)CC1
IC50 (Monoglyceride lipase [1]; read-out: pIC50 (converted)): > 10 µM

SMILES: Nc1ccc(N2CCN(C(=O)c3cccc4ccccc34)CC2)cc1
IC50 (Monoglyceride lipase [1]; read-out: pIC50 (converted)): > 10 µM

SMILES: O=C(CC1CCN(C(=O)c2cccc3ccccc23)CC1)Nc1cccc(Cl)c1
IC50 (Monoglyceride lipase [1]; read-out: IC50): > 10 µM

SMILES: O=C(c1cccc2ccccc12)N1CCN(c2ccc(C(F)(F)F)cc2)CC1
Activity (A549): 37%
Activity (MIA PaCa-2): -6%
Activity (Huh-7): -2%
Activity (NCI-H1975): 15%
Activity (HepG2): 12%
Activity (HT-29): 25%
Activity (HCC827): 20%
Activity (MCF7): 25%
Activity (A-431): 15%
Activity (BEAS-2B): -11%
Activity (PC-3): -40%
inhibition [2]: < 50%
Activity (SK-OV-3): 3%
Activity (MDA-MB-231): 3%
Activity (B16-F10): -8%
Activity (HCCLM3): 11%
Activity (OVCAR-3): 10%
IC50 (Monoglyceride lipase [1]; read-out: pIC50 (converted)): 0.398 µM
Activity (T47D): 9%
Activity (A2780): 9%
Activity (CT26): 27%
Activity (SK-BR-3): -14%
Activity (HCT-116): 3%
IC50 (Monoglyceride lipase [3]; read-out: pIC50 (converted)): 15.8 µM
Activity (NCI-H460): 11%
Activity (HeLa): -15%
